# Laboratory results taken from patent US9833497B2, “Human originated EGF domain proteins and use of the same” (CHENGDU SOURCEBIO LIMITED-LIABILITY COMPANY, priority 2013, dated 2017).
# Key:
# Assay type in all cases: cell-based
# Proteus mirabilis = test: MIC against Gram-negative bacteria: Proteus mirabilis; conditions: P. mirabilis; 10 h cultivation at 37° C.; 5×10^5 CFU/mL
# Outline: (§1)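 Read-out is absence of bacterial growth, with MIC set at the lowest recombinant protein concentration achieving it. Bacteria, pre-grown in LB to McFarland 0.5 and resuspended, were exposed at 5×10^5 CFU/mL to two-fold diluted human EGF domain proteins in triplicate at 37° C, 175 rpm.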
# E. coli BL21 = test: MIC against Gram-negative bacteria: E. coli BL21; conditions: E. coli BL21; 10 h cultivation at 37° C.; 5×10^5 CFU/mL
# Outline: as §1
# Aeromonas hydrophila = test: MIC against Gram-negative bacteria: Aeromonas hydrophila; conditions: A. hydrophila; 10 h cultivation at 37° C.; 5×10^5 CFU/mL
# Outline: as §1
# Enterobacter cloacae = test: MIC against Gram-negative bacteria: Enterobacter cloacae; conditions: E. cloacae; 10 h cultivation at 37° C.; 5×10^5 CFU/mL
# Outline: as §1
# E. coli DH5α = test: Antibacterial activity: MIC and growth curve against E. coli DH5α in 96-well plate; conditions: minimal inhibitory concentration against E. coli DH5α; 96-well plate, 5×10^5 CFU/mL, 37° C., judged after 8 h
# Outline: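 Log-phase DH5α (OD600 about 0.5, 37° C, 185 rpm in LB) was pelleted, resuspended in fresh LB and seeded at 5×10^5 CFU/mL with recombinant protein at 50, 25 and 12.5 μg/mL (two-fold series), in triplicate. Plates were shaken at 175 rpm, 37° C, and OD600 was read every 30 min. MIC was the lowest concentration with no growth.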
# Citrobacter diversus = test: MIC against Gram-negative bacteria: Citrobacter diversus; conditions: C. diversus; 10 h cultivation at 37° C.; 5×10^5 CFU/mL
# Outline: as §1
# Klebsiella pneumonia = test: MIC against Gram-negative bacteria: Klebsiella pneumonia; conditions: K. pneumonia; 10 h cultivation at 37° C.; 5×10^5 CFU/mL
# Outline: as §1
# Proteus vulgaris = test: MIC against Gram-negative bacteria: Proteus vulgaris; conditions: P. vulgaris; 10 h cultivation at 37° C.; 5×10^5 CFU/mL
# Outline: as §1
# Pseudomonas aeruginosa = test: MIC against Gram-negative bacteria: Pseudomonas aeruginosa; conditions: P. aeruginosa; 10 h cultivation at 37° C.; 5×10^5 CFU/mL
# Outline: as §1
# Moraxella catarrhalis = test: MIC against Gram-negative bacteria: Moraxella catarrhalis; conditions: M. catarrhalis; 10 h cultivation at 37° C.; 5×10^5 CFU/mL
# Outline: as §1
# Serratia marcescens = test: MIC against Gram-negative bacteria: Serratia marcescens; conditions: S. marcescens; 10 h cultivation at 37° C.; 5×10^5 CFU/mL
# Outline: as §1
Substance,MIC (μg/mL) P. mirabilis (Proteus mirabilis) [µg/mL],MIC (μg/mL) E. coli BL21 (E. coli BL21) [µg/mL],MIC (μg/mL) A. hydrophila (Aeromonas hydrophila) [µg/mL],MIC (μg/mL) E. cloacae (Enterobacter cloacae) [µg/mL],MIC (E. coli DH5α) [µg/mL],MIC (μg/mL) C. diversus (Citrobacter diversus) [µg/mL],MIC (μg/mL) K. pneumonia (Klebsiella pneumonia) [µg/mL],MIC (μg/mL) P. vulgaris (Proteus vulgaris) [µg/mL],MIC (μg/mL) P. aeruginosa (Pseudomonas aeruginosa) [µg/mL],MIC (μg/mL) M. catarrhalis (Moraxella catarrhalis) [µg/mL],MIC (μg/mL) S. marcescens (Serratia marcescens) [µg/mL]
PRT201 (NMSSCPLDSKGKVCSGHGVCSNEATCICDFTWAGTDCS; listed as Homo sapiens),25,12.5,12.5,50,50,50,12.5,50,50,12.5,25
PRT202 (KSTNCSSKCKGHAVCDHELQCQCEEGWIPPDCD; listed as Homo sapiens),25,12.5,12.5,12.5,25,12.5,12.5,12.5,12.5,12.5,25
PRT203 (CSPAFCNKRGICNNKHHCHCNYLWDPPNCL; listed as Homo sapiens),50,25,25,12.5,12.5,50,25,25,12.5,25,50
PRT205 (SAHVCSQQCSGHGVCDSRNKCHCSPGYKPPNCQ; listed as Homo sapiens),12.5,12.5,25,12.5,12.5,12.5,25,25,12.5,25,12.5
PRT207 (RSSNCSAQCHNHGVCNHKQECHCHAGWAPPHCA; listed as Homo sapiens),12.5,50,50,12.5,12.5,12.5,50,25,12.5,50,50
PRT209 (DVDECAQALHDCRPSQDCHNLPGSYQCTCPDGYR; listed as Homo sapiens),12.5,12.5,12.5,12.5,12.5,12.5,25,50,12.5,12.5,12.5
PRT211 (DIDECSYSSYLCQYRCVNEPGRFSCHCPQGYQ; listed as Homo sapiens),25,12.5,50,25,25,25,12.5,50,25,12.5,25
PRT212 (DIDECESGAHQCSEAQTCVNFHGGYRCV; listed as Homo sapiens),12.5,50,25,12.5,12.5,12.5,50,12.5,12.5,25,12.5
PRT213 (QNCTKTPCLPNAKCEIRNGIEACYCNMGFSGNGVTICE; listed as Homo sapiens),25,12.5,12.5,50,12.5,50,12.5,50,12.5,12.5,25
PRT214 (DDNECGNLTQSCGENANCTNTEGSYYCMCVPGFRSSSNQDRFITNDGTVCI; listed as Homo sapiens),12.5,25,25,12.5,12.5,12.5,25,25,12.5,25,12.5
PRT215 (YTQCTDGYEWDPVRQQCKDIDECDIVPDACKGGMKCVNHYGGYLCL; listed as Homo sapiens),25,12.5,12.5,25,25,25,100,12.5,25,12.5,12.5
PRT216 (DIDECTAGTHNCRADQVCINLRGSFACQCPPGYQKRGEQCV; listed as Homo sapiens),25,12.5,50,12.5,12.5,12.5,50,12.5,12.5,50,25
PRT217 (DIDECTIPPYCHQRCVNTPGSFYCQCSPGFQLAANNYTCV; listed as Homo sapiens),12.5,25,25,12.5,12.5,12.5,25,12.5,12.5,12.5,50
PRT218 (DINECDASNQCAQQCYNILGSFICQCNQGYELSSDRLNCE; listed as Homo sapiens),25,50,12.5,25,100,25,50,50,50,50,25
PRT219 (DIDECRTSSYLCQYQCVNEPGKFSCMCPQGYQVVRSRTCQ; listed as Homo sapiens),12.5,25,12.5,12.5,12.5,12.5,12.5,25,50,12.5,12.5
